According to US6596778B1, “β-endorphin peptides for treating muscle-wasting diseases” (The University of Birmingham, priority 1997, dated 2003):
pEC50: −log10 of the molar value. Where a SMILES comes first, the peptide text is derived from it. Where no end group is shown, it is not given here. [ ]: non-standard residue; d: D form. Sar = CNCC(=O)O

Experiments:
mouse diaphragm muscle [1] = assay type: cell-based, mice, C57BL/6j strain; conditions: for blockade of the agonist's/peptide's effect on contractile responses by BNTX (d1-opioid antagonist): BNTX 2.5×10^−7 M; for blockade of the agonist's/peptide's effect on contractile responses by BNTX (d1-opioid antagonist) / blockade of the agonist's/peptide's effect on contractile responses by NTB (d2-opioid antagonist): agonist/peptide 2.5×10^−7 M; for blockade of the agonist's/peptide's effect on contractile responses by NTB (d2-opioid antagonist): NTB 2.5×10^−7 M; for blockade of the peptide's effect on contractile responses by naloxone: naloxone 2.5×10^−6 M; for blockade of the peptide's effect on contractile responses by naloxone / 1/2 relaxation time / Time to peak: peptide 2.5×10^−7 M; for 1/2 relaxation time / Time to peak: low frequency indirect stimulation, mean ± S.E.M.
Procedure: (§1) Adult female mice, 3-4 months of age, of the C57BL/6j strain were killed by cervical dislocation and the skin and musculature around the rib cage were removed. The diaphragm and part of the rib cage were carefully dissected out along with a length of the left phrenic nerve. The left hemidiaphragm (together with the left phrenic nerve stump) was pinned out in an organ bath containing oxygenated Krebs solution which was gassed continuously with 95% O2-5% CO2 at room temperature (approximately 20° C.) as described in Khan, S.; Smith, M. E., Muscle Nerve, 18, 1250-1256; 1995. The central tendon was attached with the aid of a silk thread to a force transducer (Dynamometer, model UF1), and the phrenic nerve was introduced into the end of a suction electrode for indirect stimulation.
(§2) The phrenic nerve was stimulated continuously at a low frequency (0.5 Hz) with supramaximum square wave pulses of 0.2 msec width using a dual channel stimulator (Digitimer D4030). The muscle was allowed to equilibrate until the responses of the stimulated muscle had reached a constant amplitude (approximately 20 min). Krebs solution ([…]), or a solution ([…]) of the appropriate peptide, was added to the centre of the organ bath whilst the contractions were being recorded.
(§3) Direct stimulation of the muscle was effected by two stainless steel needle electrodes placed near the centre of the hemidiaphragm. The position of the force transducer was adjusted until a constant resting tension was seen. When direct stimulation of the muscle was employed d-tubocurarine chloride (2.5×10^−6M) was included in the bathing medium to block the acetylcholine (ACh) receptors and prevent indirect stimulation of the muscles via the motor nerve terminals. The phrenic nerve was stimulated continuously at 0.5 Hz, d-tubocurarine was added to the organ bath, and then, when the responses to nerve stimulation had ceased, the muscle was subjected to continuous direct supramaximum stimulation at a frequency of 0.5 Hz. […] The amplitude, time to peak and half relaxation time of the contractions developed in response to indirect and direct stimulation were determined. The half-relaxation time of the contractions was expressed as the time taken for the tension to decline from the maximum amplitude to half maximum. The dose-response curves were analyzed using a Kaloidograph software package to determine the values for EC50 and maximum response. The significance of the results was determined, unless otherwise stated, using ANOVA, with treatment as the grouping factor, followed by the Bonferroni-Dunn post hoc test.

dystrophic mice = experiment: Chronic intravenous injection in dystrophic mice (body weight, EDL muscle weight, CPK in blood and muscle); assay type: in vivo
Procedure: In one series of experiments, the C-terminal peptide, glycylglutamine, was injected intravenously into the blood of dystrophic mice 4 to 5 times a week in an amount of approximately 1.5 microgram/g body weight each time over a seven week period. Control mice were injected with the same volume of saline at the same times. There were six mice in each group.
The following measurements were made:
1. Change in body weight (the dystrophic mice would usually not gain significant weight over seven weeks and might even lose weight-depending on their age).
2. Weight of the extensor digitorum longus (EDL) muscle.
3. Level of CPK in the blood (a diagnostic test for muscular dystrophy is to measure the level of CPK in the blood. In muscle diseases, the blood levels of enzymes such as CPK are elevated and in muscular dystrophy the levels can be very high).
4. CPK enzyme levels in the muscle.

mouse diaphragm muscle [2] = experiment: Contractions of hemidiaphragm in response to direct stimulation of the muscle in the presence of d-tubocurarine; assay type: cell-based, mice, C57BL/6j strain; conditions: peptide 2.5×10^−8 M, mean ± S.E.M.
Procedure: as §1
as §3, with “terminals.” for “terminals. The phrenic nerve was stimulated continuously at 0.5 Hz, d-tubocurarine was added to the organ bath, and then, when the responses to nerve stimulation had ceased, the muscle was subjected to continuous direct supramaximum stimulation at a frequency of 0.5 Hz.”, “test. […]” for “test.”

[3] = test system: CPK leakage into the blood; conditions: intravenous injection of β-endorphin alone; cited from earlier work
mouse diaphragm muscle [4] = experiment: Contractions of hemidiaphragm in response to nerve stimulation in the presence of neostigmine sulphate; assay type: cell-based, mice, C57BL/6j strain; conditions: neostigmine sulphate 10^−5 M, peptide 10^−7 M; mean ± S.E.M.
Procedure: as §1
as §2, with “recorded. […]” for “recorded.”

[5] = indirect stimulation 0.5 Hz, mean ± SEM

Molecule | effect on the amplitude of the contractions (in words) (mouse diaphragm muscle [1]; indirect stimulation 0.5 Hz) | blockade of the agonist's/peptide's effect on contractile responses by NTB (d2-opioid antagonist) (mouse diaphragm muscle [1]) | maximum increase in the response (mouse diaphragm muscle [1]; [5]) | blockade of the peptide's effect on contractile responses by naloxone (mouse diaphragm muscle [1]) | tension developed, % of the control values (absence of added peptide) (mouse diaphragm muscle [2]) [%] | 1/2 relaxation time (mouse diaphragm muscle [1]) | Time to peak (mouse diaphragm muscle [1]) | other results
N[C@@H](CCC(=O)O)C(=O)O [L-glutamic acid] | no effect |  |  |  |  |  |  | 
CC(C)[C@H](NC(=O)[C@H](CCC(=O)O)NC(=O)[C@H](Cc1ccccc1)NC(=O)[C@@H](C)NC(=O)[C@@H](N)Cc1ccc(O)cc1)C(=O)N[C@H](C(=O)NCC(N)=O)C(C)C [deltorphin II] |  |  |  |  |  |  |  | pEC50 (mouse diaphragm muscle [1]; indirect stimulation 0.5 Hz, room temperature, read-out: EC50 for increase in contractile response): 9.70
NCC(=O)N[C@@H](CCC(N)=O)C(=O)O [glycylglutamine, glycyl-L-glutamine] (H-Gly-Gln-OH) | immediate increase | Neither naloxone, BNTX, nor NTB blocked | 18.5±1.5% | Neither naloxone, BNTX, nor NTB blocked | 98.7±0.9 |  |  | increase in body weight (dystrophic mice; i.v. approximately 1.5 microgram/g 4 to 5 times a week, seven week period, statistically significant): approximately 12%; reduction of CPK level in the blood (dystrophic mice; i.v. approximately 1.5 microgram/g 4 to 5 times a week, seven weeks): 25%; increase in EDL muscle weight (dystrophic mice; i.v. approximately 1.5 microgram/g 4 to 5 times a week, seven weeks, not statistically significant): approximately 5%; increase of enzyme (CPK) concentration in the EDL muscle (dystrophic mice; seven weeks, calculated on a wet weight basis): 55%; blockade of the agonist's/peptide's effect on contractile responses by BNTX (d1-opioid antagonist) (mouse diaphragm muscle [1]): Neither naloxone, BNTX, nor NTB blocked; lowest concentration at which significant increases in contractile responses were seen (mouse diaphragm muscle [1]; indirect stimulation): 10^−10 M
CC[C@H](C)[C@H](NC(=O)[C@H](C)NC(=O)[C@H](CC(N)=O)NC(=O)[C@H](CCCCN)NC(=O)[C@H](Cc1ccccc1)NC(=O)[C@H](CC(C)C)NC(=O)[C@@H](NC(=O)[C@@H](NC(=O)[C@H](CC(C)C)NC(=O)[C@@H]1CCCN1C(=O)[C@@H](NC(=O)[C@H](CCC(N)=O)NC(=O)[C@H](CO)NC(=O)[C@H](CCCCN)NC(=O)[C@H](CCC(=O)O)NC(=O)[C@H](CO)NC(=O)[C@@H](NC(=O)[C@H](CCSC)NC(=O)[C@H](Cc1ccccc1)NC(=O)CNC(=O)CNC(=O)[C@@H](N)Cc1ccc(O)cc1)[C@@H](C)O)[C@@H](C)O)C(C)C)[C@@H](C)O)C(=O)N[C@H](C(=O)N[C@@H](CCCCN)C(=O)N[C@@H](CC(N)=O)C(=O)N[C@@H](C)C(=O)N[C@@H](Cc1ccc(O)cc1)C(=O)N[C@@H](CCCCN)C(=O)N[C@@H](CCCCN)C(=O)NCC(=O)N[C@@H](CCC(=O)O)C(=O)O)[C@@H](C)CC [β-endorphin] | immediate increase | neither | 34.4±2.9% | complete blockade |  | 99.6 ± 0.3 percentage of the untreated controls | 94.1 ± 0.5 percentage of the untreated controls | effect in preventing CPK leakage into the blood [3]: little effect
Ac-K[dK][Sar]E [β-endorphin28-31 analogue] | immediate increase | Neither naloxone, BNTX, nor NTB blocked | 16.7±0.9% | Neither naloxone, BNTX, nor NTB blocked | 100±1.1 | 102.8 ± 2.6 percentage of the untreated controls | 95.9 ± 0.3 percentage of the untreated controls | blockade of the agonist's/peptide's effect on contractile responses by BNTX (d1-opioid antagonist) (mouse diaphragm muscle [1]): Neither naloxone, BNTX, nor NTB blocked; duration of the effect on amplitude after addition of the peptide (mouse diaphragm muscle [1]; indirect stimulation): at least 6 minutes; lowest concentration at which significant increases in contractile responses were seen (mouse diaphragm muscle [1]; indirect stimulation): 10^−10 M; tension developed in the presence of neostigmine sulphate (mouse diaphragm muscle [4]): 103.4±1.0%
N-Acetyl β-endorphin (Ac-YGGFMTSEKSQTPLVTLFKNAIIKNAYKKGE; UniProt P01189 237-267, looked up) | no significant effect |  |  |  |  |  |  | responses in the presence of the peptide (mouse diaphragm muscle [1]; three preparations, concentration not given, mean ± SEM): 101.5±0.7%
β-Endorphin 1-16 (YGGFMTSEKSQTPLVT; Beta-endorphin; UniProt P01189 237-252, looked up, fragment) [β-endorphin fragment (α-endorphin)] | no significant effect |  |  |  |  |  |  | tension developed, % of the control tension (mouse diaphragm muscle [1]; peptide 10^−6 M, indirect stimulation): 102.0±0.2%
β-endorphin1-27 (YGGFMTSEKSQTPLVTLFKNAIIKNAY; Beta-endorphin; UniProt P01189 237-263, looked up, fragment) | immediate increase | neither | not maximum even at 10^−6 M | had no effect on the amplitude of the contractions | 99.6±0.5 | 99.4 ± 0.4 percentage of the untreated controls | 98.1 ± 0.4 percentage of the untreated controls | tension developed in the presence of neostigmine sulphate (mouse diaphragm muscle [4]): 102.3±1.2%
